From patent US20040063662A1, “Selenophene anti-tumor agents” (priority 1996, published 2004)

Experiments:
MOLT-4 = experiment: NCI human tumor cell panel: MOLT-4 (Leukemia); assay type: cell-based; conditions: for GI50: MOLT-4, read-out: Log10 GI50 (converted); for IC (TGI): MOLT-4, read-out: Log10 TGI (converted)
RPMI-8226 = experiment: NCI human tumor cell panel: RPMI-8226 (Leukemia); assay type: cell-based; conditions: for GI50: RPMI-8226, read-out: Log10 GI50 (converted); for IC (TGI): RPMI-8226, read-out: Log10 TGI
SR = experiment: NCI human tumor cell panel: SR (Leukemia); assay type: cell-based; conditions: for GI50: read-out: Log10 GI50 (converted); for IC (TGI): read-out: Log10 TGI (converted)
EKVX = experiment: NCI human tumor cell panel: EKVX (Non-Small Cell Lung Cancer); assay type: cell-based; conditions: for GI50: read-out: Log10 GI50 (converted); for IC (TGI): read-out: Log10 TGI (converted)
HOP-62 = experiment: NCI human tumor cell panel: HOP-62 (Non-Small Cell Lung Cancer); assay type: cell-based; conditions: for IC (TGI): HOP-62, read-out: Log10 TGI (converted)
NCI-H322M = experiment: cells; assay type: cell-based; conditions: Homo sapiens; for GI50: read-out: Log10 GI50 (converted); for IC (TGI): read-out: Log10 TGI (converted)
NCI-H460 = experiment: NCI human tumor cell panel: NCI-H460 (Non-Small Cell Lung Cancer); assay type: cell-based; conditions: for IC (TGI): NCI-H460, read-out: Log10 TGI (converted)
HCC-2998 = experiment: NCI human tumor cell panel: HCC-2998 (Colon Cancer); assay type: cell-based; conditions: for GI50: HCC-2998, read-out: Log10 GI50 (converted); for IC (TGI): HCC-2998, read-out: Log10 TGI (converted)
HCT-116 = experiment: NCI human tumor cell panel: HCT-116 (Colon Cancer); assay type: cell-based; conditions: for GI50: HCT-116, read-out: Log10 GI50 (converted); for IC (TGI): HCT-116, read-out: Log10 TGI (converted)
HCT-15 = experiment: NCI human tumor cell panel: HCT-15 (Colon Cancer); assay type: cell-based; conditions: for GI50: HCT-15, read-out: Log10 GI50 (converted); for IC (TGI): HCT-15, read-out: Log10 TGI (converted)
HT29 = experiment: NCI human tumor cell panel: HT29 (Colon Cancer); assay type: cell-based; conditions: for IC (TGI): HT-29, HT29, read-out: Log10 TGI (converted)
KM12 = experiment: NCI human tumor cell panel: KM12 (Colon Cancer); assay type: cell-based; conditions: for GI50: KM12, read-out: Log10 GI50 (converted); for IC (TGI): KM12, read-out: Log10 TGI (converted)
SW-620 = experiment: NCI human tumor cell panel: SW-620 (Colon Cancer); assay type: cell-based; conditions: for GI50: SW-620, read-out: Log10 GI50 (converted); for IC (TGI): SW-620, read-out: Log10 TGI (converted)
SF-295 = experiment: NCI human tumor cell panel: SF-295 (CNS Cancer); assay type: cell-based; conditions: for GI50: SF-295, read-out: Log10 GI50 (converted); for IC (TGI): SF-295, read-out: Log10 TGI (converted)
SF-539 = experiment: NCI human tumor cell panel: SF-539 (CNS Cancer); assay type: cell-based; conditions: for GI50: SF-539, read-out: Log10 GI50 (converted); for IC (TGI): SF-539, read-out: Log10 TGI (converted)
SNB-75 = experiment: NCI human tumor cell panel: SNB-75 (CNS Cancer); assay type: cell-based; conditions: for GI50: SNB-75, read-out: Log10 GI50 (converted); for IC (TGI): SNB-75, read-out: Log10 TGI (converted)
U251 = experiment: NCI human tumor cell panel: U251 (CNS Cancer); assay type: cell-based; conditions: for GI50: U-251, U251, read-out: Log10 GI50 (converted); for IC (TGI): U-251, U251, read-out: Log10 TGI (converted)
LOX IMVI = experiment: NCI human tumor cell panel: LOX IMVI (Melanoma); assay type: cell-based; conditions: for GI50: read-out: Log10 GI50 (converted); for IC (TGI): read-out: Log10 TGI (converted)
MALME-3M = experiment: NCI human tumor cell panel: MALME-3M (Melanoma); assay type: cell-based; conditions: Malme-3M; for GI50: read-out: Log10 GI50 (converted)
M14 = experiment: NCI human tumor cell panel: M14 (Melanoma); assay type: cell-based; conditions: for GI50: M14, read-out: Log10 GI50 (converted); for IC (TGI): M14, read-out: Log10 TGI (converted)
UACC-257 = experiment: NCI human tumor cell panel: UACC-257 (Melanoma); assay type: cell-based; conditions: for GI50: UACC-257, read-out: Log10 GI50 (converted); for IC (TGI): UACC-257, read-out: Log10 TGI (converted)
UACC-62 = experiment: NCI human tumor cell panel: UACC-62 (Melanoma); assay type: cell-based; conditions: for GI50: UACC-62, read-out: Log10 GI50 (converted); for IC (TGI): UACC-62, read-out: Log10 TGI (converted)
OVCAR-3 = experiment: NCI human tumor cell panel: OVCAR-3 (Ovarian Cancer); assay type: cell-based; conditions: for GI50: OVCAR-3, read-out: Log10 GI50 (converted); for IC (TGI): OVCAR-3, read-out: Log10 TGI (converted)
OVCAR-4 = experiment: NCI human tumor cell panel: OVCAR-4 (Ovarian Cancer); assay type: cell-based
OVCAR-8 = experiment: NCI human tumor cell panel: OVCAR-8 (Ovarian Cancer); assay type: cell-based; conditions: for GI50: OVCAR-8, read-out: Log10 GI50 (converted); for IC (TGI): OVCAR-8, read-out: Log10 TGI (converted)
ACHN = experiment: NCI human tumor cell panel: ACHN (Renal Cancer); assay type: cell-based; conditions: for GI50: read-out: Log10 GI50 (converted); for IC (TGI): read-out: Log10 TGI (converted)
UO-31 = experiment: NCI human tumor cell panel: UO-31 (Renal Cancer); assay type: cell-based; conditions: for GI50: UO-31, read-out: Log10 GI50 (converted); for IC (TGI): UO-31, read-out: Log10 TGI (converted)
DU-145 = experiment: NCI human tumor cell panel: DU-145 (Prostate Cancer); assay type: cell-based; conditions: for GI50: DU-145, read-out: Log10 GI50 (converted); for IC (TGI): DU-145, read-out: Log10 TGI (converted)
MCF7 = experiment: NCI human tumor cell panel: MCF7 (Breast Cancer); assay type: cell-based; conditions: for GI50: MCF7, read-out: Log10 GI50 (converted); for IC (TGI): MCF7, read-out: Log10 TGI (converted)
MDA-MB-435 = experiment: NCI human tumor cell panel: MDA-MB-435 (Breast Cancer); assay type: cell-based; conditions: for GI50: MDA-MB-435, read-out: Log10 GI50 (converted)
MDA-N = experiment: NCI human tumor cell panel: MDA-N (Breast Cancer); assay type: cell-based; conditions: for GI50: read-out: Log10 GI50 (converted); for IC (TGI): read-out: Log10 TGI (converted)
HOP-92 = experiment: NCI human tumor cell panel: HOP-92 (Non-Small Cell Lung Cancer); conditions: for GI50: HOP-92, read-out: Log10 GI50 (converted); for IC (TGI): HOP-92, read-out: Log10 TGI

OCc1ccc(-c2ccc(-c3ccc[se]3)s2)[se]1 [compound 676631]
GI50 (MOLT-4): > 100 µM
IC (TGI) (MOLT-4): > 100 µM
GI50 (RPMI-8226): > 100 µM
IC (TGI) (RPMI-8226): > 100 µM
GI50 (SR): > 100 µM
IC (TGI) (SR): > 100 µM
GI50 (EKVX): > 100 µM
IC (TGI) (EKVX): > 100 µM
IC (TGI) (HOP-62): > 100 µM
GI50 (NCI-H322M): 21.9 µM
IC (TGI) (NCI-H322M): > 100 µM
IC (TGI) (NCI-H460): > 100 µM
GI50 (HCC-2998): 42.7 µM
IC (TGI) (HCC-2998): > 100 µM
GI50 (HCT-116): 0.0537 µM
IC (TGI) (HCT-116): > 100 µM
GI50 (HCT-15): 27.5 µM
IC (TGI) (HCT-15): > 100 µM
IC (TGI) (HT29): > 100 µM
GI50 (KM12): 26.9 µM
IC (TGI) (KM12): > 100 µM
GI50 (SW-620): 0.355 µM
IC (TGI) (SW-620): > 100 µM
GI50 (SF-295): 55 µM
IC (TGI) (SF-295): > 100 µM
GI50 (SF-539): 12.3 µM
IC (TGI) (SF-539): 57.5 µM
GI50 (SNB-75): 41.7 µM
IC (TGI) (SNB-75): > 100 µM
GI50 (U251): 0.0776 µM
IC (TGI) (U251): 20 µM
GI50 (LOX IMVI): 15.1 µM
IC (TGI) (LOX IMVI): 36.3 µM
GI50 (MALME-3M): > 100 µM
GI50 (M14): 20 µM
IC (TGI) (M14): > 100 µM
GI50 (UACC-257): 0.0316 µM
IC (TGI) (UACC-257): > 100 µM
GI50 (UACC-62): 0.0263 µM
IC (TGI) (UACC-62): 0.115 µM
GI50 (OVCAR-3): 0.0275 µM
IC (TGI) (OVCAR-3): 0.138 µM
IC (TGI) (OVCAR-4; OVCAR-4, read-out: Log10 TGI (converted)): > 100 µM
GI50 (OVCAR-8): 24.5 µM
IC (TGI) (OVCAR-8): > 100 µM
GI50 (ACHN): > 100 µM
IC (TGI) (ACHN): > 100 µM
GI50 (UO-31): > 100 µM
IC (TGI) (UO-31): > 100 µM
GI50 (DU-145): 20 µM
IC (TGI) (DU-145): 77.6 µM
GI50 (MCF7): 0.0933 µM
IC (TGI) (MCF7): 21.9 µM
GI50 (MDA-MB-435): 8.13 µM
IC (TGI) (MDA-MB-435; MDA-MB-435, read-out: Log10 TGI (converted)): 55 µM
GI50 (MDA-N): 16.6 µM
IC (TGI) (MDA-N): 43.7 µM
GI50 (HOP-92): > 100 µM
IC (TGI) (HOP-92): > 100 µM

OCc1ccc(-c2ccc(-c3ccc(CO)[se]3)s2)[se]1 [compound 676632]
GI50 (MOLT-4): > 100 µM
IC (TGI) (MOLT-4): > 100 µM
GI50 (RPMI-8226): > 100 µM
IC (TGI) (RPMI-8226): > 100 µM
GI50 (SR): > 100 µM
IC (TGI) (SR): > 100 µM
GI50 (EKVX): 50.1 µM
IC (TGI) (EKVX): > 100 µM
GI50 (HOP-62; HOP-62, read-out: Log10 GI50 (converted)): 0.0759 µM
IC (TGI) (HOP-62): > 100 µM
GI50 (NCI-H322M): > 100 µM
IC (TGI) (NCI-H322M): > 100 µM
GI50 (NCI-H460; NCI-H460, read-out: Log10 GI50 (converted)): 0.0468 µM
IC (TGI) (NCI-H460): > 100 µM
GI50 (HCC-2998): 0.178 µM
IC (TGI) (HCC-2998): 0.55 µM
GI50 (HCT-116): > 100 µM
IC (TGI) (HCT-116): > 100 µM
GI50 (HCT-15): 0.0447 µM
IC (TGI) (HCT-15): > 100 µM
GI50 (HT29; HT-29, HT29, read-out: Log10 GI50 (converted)): > 100 µM
IC (TGI) (HT29): > 100 µM
GI50 (KM12): 0.537 µM
IC (TGI) (KM12): > 100 µM
GI50 (SW-620): > 100 µM
IC (TGI) (SW-620): > 100 µM
GI50 (SF-295): > 100 µM
IC (TGI) (SF-295): > 100 µM
GI50 (SF-539): > 100 µM
IC (TGI) (SF-539): > 100 µM
GI50 (SNB-75): > 100 µM
IC (TGI) (SNB-75): > 100 µM
GI50 (U251): 0.0355 µM
IC (TGI) (U251): 12 µM
GI50 (LOX IMVI): > 100 µM
IC (TGI) (LOX IMVI): < 100 µM
GI50 (MALME-3M): > 100 µM
IC (TGI) (MALME-3M; read-out: Log10 TGI (converted)): > 100 µM
GI50 (M14): > 100 µM
IC (TGI) (M14): > 100 µM
GI50 (UACC-257): 0.0214 µM
IC (TGI) (UACC-257): > 100 µM
GI50 (UACC-62): 0.0224 µM
IC (TGI) (UACC-62): 0.0562 µM
GI50 (OVCAR-3): 0.0195 µM
IC (TGI) (OVCAR-3): 0.0676 µM
GI50 (OVCAR-4; OVCAR-4, read-out: Log10 GI50 (converted)): 0.135 µM
GI50 (OVCAR-8): > 100 µM
IC (TGI) (OVCAR-8): > 100 µM
GI50 (ACHN): > 100 µM
IC (TGI) (ACHN): > 100 µM
GI50 (UO-31): > 100 µM
IC (TGI) (UO-31): > 100 µM
GI50 (DU-145): 95.5 µM
IC (TGI) (DU-145): > 100 µM
GI50 (MCF7): 0.0123 µM
IC (TGI) (MCF7): > 100 µM
GI50 (MDA-MB-435): > 100 µM
GI50 (MDA-N): > 100 µM
IC (TGI) (MDA-N): > 100 µM
GI50 (HOP-92): > 100 µM
CC50 (HOP-92; HOP-92, read-out: Log10 LC50 (converted)): > 100 µM
IC (TGI) (HOP-92): > 100 µM
